Source: the supplement of paper PMC4862054

What was measured:
MDA-MB-231 [1] = experiment: drug sensitivity score (DSS), CellTiter-Glo (DSS (AUC-based score)); higher = stronger drug effect (viability inhibition or cytotoxicity); extreme values may be limits of the assay; settings: incubation time: 72 h
Summary of the method: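 In 384-well plates, compound was laid out at 5 concentrations in 10-fold steps over a 10,000-fold range specific to each compound, and breast cancer cell lines were seeded on top in 20 µl suspension for a 72 h incubation. CellTox Green fluorescence and then CellTiter-Glo luminescence were read, and each plate was normalised to 0.1 % DMSO and a positive kill control. The drug sensitivity score was calculated from the area under the fitted dose-response curve.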

CAL-120 [2] = settings: 72 h
Summary of the method: (§1)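 Each 384-well plate was pre-loaded with compound dissolved in 5 µl medium, received breast cancer cells in 20 µl suspension, and was incubated 72 h. A 2.5 µl addition of CellTiter-Blue for 2 h at 37 °C was followed by a fluorescence read at 560/590 nm. Data were normalised per plate to vehicle and a positive kill control and checked by Z'-factor. EC50 was fitted from the percent-inhibition dose-response curve, censored at the highest concentration, excluding rows with a drug sensitivity score of zero.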

MDA-MB-231 [3] = settings: 72 h
Summary of the method: as §1

HCC1937 [4] = settings: 72 h
Summary of the method: as §1

Hs578T [5] = settings: 72 h
Summary of the method: as §1

SK-BR-3 [6] = settings: 72 h
Summary of the method: as §1

MFM-223 [7] = settings: 72 h
Summary of the method: as §1

HCC1143 [8] = settings: 72 h
Summary of the method: as §1

HCC1599 [9] = settings: 72 h
Summary of the method: as §1

MDA-MB-468 [10] = settings: 72 h
Summary of the method: as §1

MDA-MB-436 [11] = settings: 72 h
Summary of the method: as §1

BT-549 [12] = settings: 72 h
Summary of the method: as §1

DU-4475 [13] = experiment: normalised viability (% of control), CellTiter-Blue; higher = more viable cells (about 100 = DMSO control); settings: incubation time: 72 h
Experimental: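 DSRT, CellTiter-Blue viability, 72 h incubation. Signal is normalised to DMSO and benzethonium chloride controls. Value is the normalised response at dose 7.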

CAL-120 [14] = experiment: normalised response (% of control), CellTiter-Glo; higher = more viable cells (100 = DMSO, 0 = benzethonium chloride kill control); settings: incubation time: 72 h
Summary of the method: (§2)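 Breast cancer cell lines, seeded at 20 µl suspension per well, were incubated for 72 h in 384-well plates containing compound at 5 concentrations. These concentrations rose in 10-fold steps over a 10,000-fold range set for each compound. CellTox Green fluorescence (485/520 nm) was read, then CellTiter-Glo luminescence after 10 min at room temperature, and each plate was normalised to 0.1 % DMSO (100) and a positive kill control (0). Values are normalised signals, each at one concentration.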

BT-474 = experiment: as above; settings: incubation time: 72 h
Summary of the method: as §2

MDA-MB-231 [15] = experiment: as above; settings: incubation time: 72 h
Summary of the method: as §2

CAL-51 = experiment: as above; settings: incubation time: 72 h
Summary of the method: as §2

HCC1937 [16] = experiment: as above; settings: incubation time: 72 h
Summary of the method: as §2

Hs578T [17] = experiment: as above; settings: incubation time: 72 h
Summary of the method: as §2

MCF-10A = experiment: as above; settings: incubation time: 72 h
Summary of the method: as §2

SK-BR-3 [18] = experiment: as above; settings: incubation time: 72 h
Summary of the method: as §2

DU-4475 [19] = experiment: as above; settings: incubation time: 72 h
Summary of the method: as §2

CAL-85-1 = experiment: as above; settings: incubation time: 72 h
Summary of the method: as §2

MFM-223 [20] = experiment: as above; settings: incubation time: 72 h
Summary of the method: as §2

MDA-MB-453 = experiment: as above; settings: incubation time: 72 h
Summary of the method: as §2

HCC1143 [21] = experiment: as above; settings: incubation time: 72 h
Summary of the method: as §2

HCC1599 [22] = experiment: as above; settings: incubation time: 72 h
Summary of the method: as §2

MDA-MB-468 [23] = experiment: as above; settings: incubation time: 72 h
Summary of the method: as §2

MDA-MB-436 [24] = experiment: as above; settings: incubation time: 72 h
Summary of the method: as §2

CAL-148 = experiment: as above; settings: incubation time: 72 h
Summary of the method: as §2

HDQ-P1 = experiment: as above; settings: incubation time: 72 h
Summary of the method: as §2

BT-549 [25] = experiment: as above; settings: incubation time: 72 h
Summary of the method: as §2

Structure (SMILES) | drug sensitivity score (MDA-MB-231 [1]) | EC50, CellTiter-Blue viability (CAL-120 [2]) | EC50, CellTiter-Blue viability (MDA-MB-231 [3]) | EC50, CellTiter-Blue viability (HCC1937 [4]) | EC50, CellTiter-Blue viability (Hs578T [5]) | EC50, CellTiter-Blue viability (SK-BR-3 [6]) | EC50, CellTiter-Blue viability (MFM-223 [7]) | EC50, CellTiter-Blue viability (HCC1143 [8]) | EC50, CellTiter-Blue viability (HCC1599 [9]) | EC50, CellTiter-Blue viability (MDA-MB-468 [10]) | EC50, CellTiter-Blue viability (MDA-MB-436 [11]) | EC50, CellTiter-Blue viability (BT-549 [12]) | other results
COc1ncc(-c2ccc3nccc(-c4ccnnc4)c3c2)cc1NS(=O)(=O)c1ccc(F)cc1F | 10.3 | 20.1 nM | 33.5 nM | 27.9 nM | 36.6 nM | 3.24 nM | 8.62 nM | 19.8 nM | 7.37 nM | 49.8 nM | 26.4 nM | 45.1 nM | –
COc1cc(Nc2ncc(F)c(Nc3ccc4c(n3)NC(=O)C(C)(C)O4)n2)cc(OC)c1OC [R406] | – | – | 1040 nM | – | – | – | – | – | – | – | – | 1030 nM | –
CS(=O)(=O)CCNCc1ccc(-c2ccc3ncnc(Nc4ccc(OCc5cccc(F)c5)c(Cl)c4)c3c2)o1 [Lapatinib] | 0 | 6920 nM | 5820 nM | 6280 nM | 3790 nM | 40.7 nM | 9850 nM | – | 191 nM | 1560 nM | 5900 nM | 4320 nM | –
Cn1c(=O)c(F)c(Nc2ccc(I)cc2F)c2c(=O)n(C[C@@H](O)CO)cnc21 [TAK-733] | 3.88 | 401 nM | 4.92 nM | – | 114 nM | – | 17.5 nM | 14.2 nM | – | – | – | – | –
O=c1[nH]c(=O)n([C@H]2C[C@H](O)[C@@H](CO)O2)cc1F [Floxuridine] | 4.12 | 118 nM | 494 nM | 4070 nM | 501 nM | 60.3 nM | – | 1630 nM | > 10000 nM | 48.9 nM | 182 nM | 804 nM | –
CC(C)(C)c1cc(NC(=O)Nc2ccc(-c3cn4c(n3)sc3cc(OCCN5CCOCC5)ccc34)cc2)no1 [Quizartinib] | 0 | – | – | – | – | – | – | – | 878 nM | – | – | 259 nM | –
COc1cccc2c1C(=O)c1c(O)c3c(c(O)c1C2=O)C[C@@](O)(C(C)=O)C[C@@H]3O[C@H]1C[C@H](N)[C@H](O)[C@H](C)O1 [Daunorubicin] | 6.97 | 41.8 nM | 56.1 nM | 24.7 nM | 150 nM | 66.4 nM | 667 nM | 46.8 nM | 444 nM | 98.2 nM | 78.5 nM | 141 nM | –
CC(C)C[C@H](NC(=O)[C@H](Cc1ccccc1)NC(=O)c1cnccn1)B(O)O [Bortezomib] | 22.4 | 5.42 nM | 3.89 nM | 2.93 nM | 22.2 nM | 2.77 nM | 6.67 nM | 6.46 nM | 79.5 nM | 2.95 nM | 34.9 nM | 7.83 nM | –
CC(=O)O[C@H]1C(=O)[C@@]2(C)[C@H]([C@H](OC(=O)c3ccccc3)[C@]3(O)C[C@H](OC(=O)[C@H](O)[C@@H](NC(=O)c4ccccc4)c4ccccc4)C(C)=C1C3(C)C)[C@]1(OC(C)=O)CO[C@@H]1C[C@@H]2O [Paclitaxel] | 17.3 | 3.55 nM | 2.29 nM | 4.22 nM | 5.2 nM | 2.93 nM | 4.49 nM | 7.4 nM | 111 nM | 2.7 nM | 4.49 nM | 2.7 nM | –
COc1ncc(-c2ccc3nccc(-c4ccnnc4)c3c2)cc1NS(=O)(=O)c1ccc(F)cc1F (100 nM) | – | – | – | – | – | – | – | – | – | – | – | – | normalised viability (DU-4475 [13]): 61.5%; normalised response (CAL-120 [14]): 45.6%; normalised response (BT-474): 52.7%; normalised response (MDA-MB-231 [15]): 55%; normalised response (CAL-51): 29.5%; normalised response (HCC1937 [16]): 54.6%; normalised response (Hs578T [17]): 39%; normalised response (MCF-10A): 31.8%; normalised response (SK-BR-3 [18]): 23.6%; normalised response (DU-4475 [19]): 78.1%; normalised response (CAL-85-1): 31.8%; normalised response (MFM-223 [20]): 37%; normalised response (MDA-MB-453): 20.1%; normalised response (HCC1143 [21]): 38.2%; normalised response (HCC1599 [22]): 55.4%; normalised response (MDA-MB-468 [23]): 37.9%; normalised response (MDA-MB-436 [24]): 46.7%; normalised response (CAL-148): 42.5%; normalised response (HDQ-P1): 25.5%; normalised response (BT-549 [25]): 27.1%
CC(C)(C)c1cc(NC(=O)Nc2ccc(-c3cn4c(n3)sc3cc(OCCN5CCOCC5)ccc34)cc2)no1 [Quizartinib] (100 nM) | – | – | – | – | – | – | – | – | – | – | – | – | normalised viability (DU-4475 [13]): 115%; normalised response (CAL-120 [14]): 106%; normalised response (BT-474): 108%; normalised response (MDA-MB-231 [15]): 108%; normalised response (CAL-51): 107%; normalised response (HCC1937 [16]): 102%; normalised response (Hs578T [17]): 98.5%; normalised response (MCF-10A): 105%; normalised response (SK-BR-3 [18]): 105%; normalised response (DU-4475 [19]): 104%; normalised response (CAL-85-1): 102%; normalised response (MFM-223 [20]): 109%; normalised response (MDA-MB-453): 104%; normalised response (HCC1143 [21]): 105%; normalised response (HCC1599 [22]): 111%; normalised response (MDA-MB-468 [23]): 113%; normalised response (MDA-MB-436 [24]): 111%; normalised response (CAL-148): 100%; normalised response (HDQ-P1): 100%; normalised response (BT-549 [25]): 106%
C[C@@H]1C=C2C(=O)O[C@@H]3CC[C@H](C1)[C@]23O [Galiellalactone] | 0 | – | 7150 nM | 16400 nM | 44600 nM | 12600 nM | 38200 nM | – | – | 7120 nM | 14700 nM | 5580 nM | –
